Reference: ChEMBL document CHEMBL1201862, “PubChem BioAssay data set” (2004)
Active and inactive are the calls of the source.

Key:
[1] = molecular target: Dual specificity tyrosine-phosphorylation-regulated kinase 1A (Rattus norvegicus, UniProt Q63470); type: biochemical, Homo sapiens
[2] = molecular target: Peroxisome proliferator-activated receptor gamma/Nuclear receptor coactivator 1 (Homo sapiens, UniProt P37231); test: (§1) TR-FRET dose response biochemical High Throughput Screening assay for agonists of the steroid receptor coactivator 1 (SRC-1) recruitment by the peroxisome proliferator-activated receptor gamma (PPAR gamma): non-selective agonists. [Related pubchem assays (depositor defined):AID1300, AID1808, AID504735, AID631]; type: protein assay
[3] = molecular target: Peroxisome proliferator-activated receptor gamma/Nuclear receptor coactivator 3 (Homo sapiens, UniProt P37231); test: as §1, with “3 (SRC-3)” for “1 (SRC-1)”, “assays: 1301 (Confirmation screen.), 1048 (Primary screen.)]” for “assays (depositor defined):AID1300, AID1808, AID504735, AID631]”; type: functional
[4] = molecular target: T1, Heat shock factor protein 1 (Mus musculus, UniProt P38532); test: inhibition of MG132-induced HSE-luciferase signal, confirmation, cell-based, NIH3T3, luminescence, dose retest (AID 2382); type: functional;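 note: NIH3T3 fibroblasts with HSF1-driven luciferase reporter stressed by proteasome inhibitor MG132; luminescence from HSF1-driven luciferase expression after 8 hours of MG132 stress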
T1 sequence (P38532 whole entry): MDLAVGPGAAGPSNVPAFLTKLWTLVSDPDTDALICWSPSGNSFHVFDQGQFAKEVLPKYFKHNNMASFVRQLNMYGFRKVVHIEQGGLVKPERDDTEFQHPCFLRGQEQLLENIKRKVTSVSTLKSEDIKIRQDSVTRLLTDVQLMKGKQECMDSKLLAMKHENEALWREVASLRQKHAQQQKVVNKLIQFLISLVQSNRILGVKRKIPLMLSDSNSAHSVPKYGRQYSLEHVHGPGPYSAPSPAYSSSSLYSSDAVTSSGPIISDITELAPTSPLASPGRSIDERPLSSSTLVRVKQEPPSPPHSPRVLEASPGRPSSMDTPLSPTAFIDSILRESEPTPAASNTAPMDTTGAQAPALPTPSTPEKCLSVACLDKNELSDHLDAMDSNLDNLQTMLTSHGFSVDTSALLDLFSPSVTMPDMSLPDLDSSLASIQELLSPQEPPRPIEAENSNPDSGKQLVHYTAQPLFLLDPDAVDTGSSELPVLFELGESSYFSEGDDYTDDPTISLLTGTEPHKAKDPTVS

[5] = molecular target: Peroxisome proliferator-activated receptor gamma/Nuclear receptor coactivator 2 (Homo sapiens, UniProt P37231); test: TR-FRET dose response biochemical High Throughput Screening assay for agonists of the steroid receptor coactivator 2 (SRC-2) recruitment by the peroxisome proliferator-activated receptor gamma (PPAR gamma): non-selective agonists. [Related pubchem assays: 1297, 1032 ]; type: functional
Beta-galactosidase = Beta-galactosidase (Escherichia coli, UniProt Q8VNN2); test: PubChem AID 485352; type: functional
[6] = molecular target: T2, Type-1 angiotensin II receptor (Homo sapiens, UniProt P30556); test: AT1 receptor antagonists, dose response, selectivity assay for APJ receptor antagonist project, cell-based, uHTS hits (AID 463214); type: functional;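 note: antagonist potency against angiotensin II stimulated AT1 response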
T2 sequence (P30556 whole entry): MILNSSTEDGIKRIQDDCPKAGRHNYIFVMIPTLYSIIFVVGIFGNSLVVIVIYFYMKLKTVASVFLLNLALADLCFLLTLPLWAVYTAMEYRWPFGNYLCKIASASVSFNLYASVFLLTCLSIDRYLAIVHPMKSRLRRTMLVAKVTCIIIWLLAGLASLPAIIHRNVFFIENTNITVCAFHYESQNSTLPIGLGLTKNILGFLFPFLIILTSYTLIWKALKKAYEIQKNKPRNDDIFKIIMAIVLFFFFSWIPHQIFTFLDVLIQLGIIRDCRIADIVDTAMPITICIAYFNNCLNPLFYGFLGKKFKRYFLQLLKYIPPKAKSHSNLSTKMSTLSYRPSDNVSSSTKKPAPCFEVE

Large T antigen = Large T antigen (Simian virus 40, UniProt P03070); type: functional, Betapolyomavirus macacae;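 note: Confirmatory-stage PubChem screen for compounds that inhibit SV40 T antigen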
[7] = molecular target: Glucose-6-phosphate 1-dehydrogenase (Homo sapiens, UniProt P11413); test: human G6PD enzyme inhibitors, dose response, selectivity assay for P. falciparum G6PD inhibitor project, biochemical, fluorescence (AID 504792); type: functional
[8] = Shn3 3'UTR reporter inhibitors, dose response, cell-based, Clone20 osteoblasts, firefly luciferase, cherry-picked (AID 624132); type: functional;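 note: firefly luciferase luminescence from reporter carrying the Shn3 3'UTR in osteoblasts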
[9] = HepG2 cell cytotoxicity, dose response, cytotoxicity control for Shn3 inhibitor project, CellTiter-Glo, cherry-picked (AID 624134); type: functional, cell-based
[10] = molecular target: T3, Histone-lysine N-methyltransferase NSD2 (Homo sapiens, UniProt O96028); type: biochemical
T3 sequence (O96028 whole entry): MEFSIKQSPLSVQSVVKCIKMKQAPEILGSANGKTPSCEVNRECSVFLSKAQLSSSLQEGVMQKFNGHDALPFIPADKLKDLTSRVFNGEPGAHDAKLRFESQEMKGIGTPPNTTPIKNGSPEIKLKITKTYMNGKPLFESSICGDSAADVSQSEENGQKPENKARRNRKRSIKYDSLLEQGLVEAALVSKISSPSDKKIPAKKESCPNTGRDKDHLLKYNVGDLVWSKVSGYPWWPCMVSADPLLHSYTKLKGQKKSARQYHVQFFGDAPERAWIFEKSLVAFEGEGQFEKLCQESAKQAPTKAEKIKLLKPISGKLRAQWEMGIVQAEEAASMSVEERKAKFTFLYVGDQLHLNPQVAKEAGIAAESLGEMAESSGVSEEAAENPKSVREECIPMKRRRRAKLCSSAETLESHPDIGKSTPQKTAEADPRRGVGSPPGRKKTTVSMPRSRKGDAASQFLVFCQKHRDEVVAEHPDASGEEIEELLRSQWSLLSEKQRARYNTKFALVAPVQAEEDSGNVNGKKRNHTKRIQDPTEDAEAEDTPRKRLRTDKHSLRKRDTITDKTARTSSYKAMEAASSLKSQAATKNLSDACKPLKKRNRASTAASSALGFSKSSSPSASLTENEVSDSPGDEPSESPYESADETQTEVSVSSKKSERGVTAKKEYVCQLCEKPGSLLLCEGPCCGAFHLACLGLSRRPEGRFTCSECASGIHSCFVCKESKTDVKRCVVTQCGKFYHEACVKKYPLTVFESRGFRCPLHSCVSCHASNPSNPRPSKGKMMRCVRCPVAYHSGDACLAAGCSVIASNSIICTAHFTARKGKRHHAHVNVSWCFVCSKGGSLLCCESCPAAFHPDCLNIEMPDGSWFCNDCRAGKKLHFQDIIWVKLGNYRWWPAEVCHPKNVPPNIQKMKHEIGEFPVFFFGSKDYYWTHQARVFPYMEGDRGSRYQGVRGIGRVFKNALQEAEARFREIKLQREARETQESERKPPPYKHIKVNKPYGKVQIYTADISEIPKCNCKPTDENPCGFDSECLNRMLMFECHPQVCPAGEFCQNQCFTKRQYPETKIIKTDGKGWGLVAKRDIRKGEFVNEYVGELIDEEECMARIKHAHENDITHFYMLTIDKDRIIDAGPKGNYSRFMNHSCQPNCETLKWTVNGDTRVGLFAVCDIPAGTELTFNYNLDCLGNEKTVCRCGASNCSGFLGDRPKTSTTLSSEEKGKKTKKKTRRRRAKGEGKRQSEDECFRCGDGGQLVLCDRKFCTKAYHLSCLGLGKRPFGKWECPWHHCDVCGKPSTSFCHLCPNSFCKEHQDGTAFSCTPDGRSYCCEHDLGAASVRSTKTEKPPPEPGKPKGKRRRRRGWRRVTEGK

[11] = HeLa cell cytotoxicity, dose response, cytotoxicity control for MgcRacGAP inhibitor project (AID 624300); type: functional
[12] = molecular target: T4, Rac GTPase-activating protein 1 (Homo sapiens, UniProt Q9H0H5); test: MgcRacGAP GTPase-activating activity inhibitors, confirmation, biochemical, ADP Hunter fluorescence, primary and confirmatory (AID 624330); type: functional
T4 sequence (Q9H0H5 whole entry): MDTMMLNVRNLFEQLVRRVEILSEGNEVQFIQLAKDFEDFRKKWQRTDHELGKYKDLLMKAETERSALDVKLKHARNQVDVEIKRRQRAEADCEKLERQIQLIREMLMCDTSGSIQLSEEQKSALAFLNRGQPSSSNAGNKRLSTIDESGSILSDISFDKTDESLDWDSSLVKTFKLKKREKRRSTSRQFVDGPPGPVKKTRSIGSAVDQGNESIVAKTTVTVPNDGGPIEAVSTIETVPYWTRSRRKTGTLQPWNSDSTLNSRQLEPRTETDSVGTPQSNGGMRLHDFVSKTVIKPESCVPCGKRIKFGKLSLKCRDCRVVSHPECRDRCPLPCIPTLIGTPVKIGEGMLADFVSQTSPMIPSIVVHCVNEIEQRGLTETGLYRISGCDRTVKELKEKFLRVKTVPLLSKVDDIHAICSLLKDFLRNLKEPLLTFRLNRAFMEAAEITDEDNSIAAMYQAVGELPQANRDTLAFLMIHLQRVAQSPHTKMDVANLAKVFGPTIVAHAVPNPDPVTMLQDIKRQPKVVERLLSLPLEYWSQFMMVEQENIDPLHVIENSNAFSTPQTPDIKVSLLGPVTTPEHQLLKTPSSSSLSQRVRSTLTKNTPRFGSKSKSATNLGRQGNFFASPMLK

[13] = tested on: Streptococcus sp. 'group A'; test: growth inhibition of control SK(-) GAS strain, dose response, counter-screen for streptokinase expression inhibitor project, luminescence, kanamycin, BacTiterGlo, confirmation (AID 1900); type: functional, organism-based
Streptokinase A = molecular target: T5, Streptokinase A (Streptococcus pyogenes serotype M1, UniProt P10520); test: S. pyogenes streptokinase expression inhibitors, potency, dose response, plasminogen activation absorbance, OD405 (AID 1914); type: functional, Streptococcus pyogenes M1 GAS;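 note: secreted streptokinase activity via plasminogen activation per viability signal from cell pellet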
T5 sequence (P10520 whole entry): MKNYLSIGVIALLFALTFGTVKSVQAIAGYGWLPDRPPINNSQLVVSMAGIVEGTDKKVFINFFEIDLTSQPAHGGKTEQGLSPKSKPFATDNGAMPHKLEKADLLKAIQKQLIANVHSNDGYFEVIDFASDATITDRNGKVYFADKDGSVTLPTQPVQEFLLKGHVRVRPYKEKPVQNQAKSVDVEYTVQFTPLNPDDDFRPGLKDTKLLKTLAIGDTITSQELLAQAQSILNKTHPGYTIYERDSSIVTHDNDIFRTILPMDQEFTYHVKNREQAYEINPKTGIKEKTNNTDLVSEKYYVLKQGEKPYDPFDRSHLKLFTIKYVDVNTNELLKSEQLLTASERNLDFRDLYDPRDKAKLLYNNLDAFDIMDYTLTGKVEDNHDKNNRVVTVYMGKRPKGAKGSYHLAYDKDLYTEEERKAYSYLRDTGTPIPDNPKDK

Streptococcus = test: Group A Streptococcus viability loss, dose response, counter-screen for streptokinase expression inhibitor project, luminescence, BacTiterGlo (AID 1915); type: functional, organism-based;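 note: potency for reduction of bacterial viability or growth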
HEK293 = test: inhibitors of LMP1-driven NF-kB reporter, dose response, cell-based, HEK293, luciferase, cherry-pick (AID 588343); type: functional; conditions: Homo sapiens
[14] = molecular target: T6, Corticotropin-releasing factor receptor 2/Corticotropin-releasing factor-binding protein (Homo sapiens, UniProt P24387+Q13324); test: Dose Response confirmation of uHTS hits for small molecule antagonists of the CRF-binding protein and CRF-R2 receptor complex.; type: functional; conditions: read-out: IC50_Mean
T6 sequence (Q13324 whole entry): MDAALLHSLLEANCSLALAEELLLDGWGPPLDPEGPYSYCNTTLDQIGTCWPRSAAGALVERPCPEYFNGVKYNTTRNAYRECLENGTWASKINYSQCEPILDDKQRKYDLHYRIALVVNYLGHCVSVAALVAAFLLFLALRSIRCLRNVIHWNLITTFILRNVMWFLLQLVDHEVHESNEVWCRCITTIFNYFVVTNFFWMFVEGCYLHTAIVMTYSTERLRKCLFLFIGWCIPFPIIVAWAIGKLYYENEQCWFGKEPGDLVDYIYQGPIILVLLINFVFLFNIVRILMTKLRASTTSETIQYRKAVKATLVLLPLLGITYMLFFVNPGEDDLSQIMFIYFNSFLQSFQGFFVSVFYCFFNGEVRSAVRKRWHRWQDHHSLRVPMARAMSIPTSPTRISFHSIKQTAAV
T6 sequence (P24387 whole entry): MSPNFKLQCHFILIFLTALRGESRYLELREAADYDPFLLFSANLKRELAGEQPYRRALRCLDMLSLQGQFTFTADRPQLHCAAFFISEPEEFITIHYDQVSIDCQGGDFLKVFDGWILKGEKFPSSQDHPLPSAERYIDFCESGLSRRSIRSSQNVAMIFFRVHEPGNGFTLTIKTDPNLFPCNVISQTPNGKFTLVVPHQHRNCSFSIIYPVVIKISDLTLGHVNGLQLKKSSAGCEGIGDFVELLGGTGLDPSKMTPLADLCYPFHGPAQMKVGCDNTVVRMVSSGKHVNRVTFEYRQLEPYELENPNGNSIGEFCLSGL

[15] = molecular target: T6, Corticotropin-releasing factor receptor 2/Corticotropin-releasing factor-binding protein; test: activators of CRF receptor 2 with binding protein – uHTS hits, confirmation (AID 602473); type: functional; conditions: read-out: EC50_Mean

Peroxisome proliferator-activated receptor gamma/Nuclear receptor coactivator 2, sequence (P37231 whole entry): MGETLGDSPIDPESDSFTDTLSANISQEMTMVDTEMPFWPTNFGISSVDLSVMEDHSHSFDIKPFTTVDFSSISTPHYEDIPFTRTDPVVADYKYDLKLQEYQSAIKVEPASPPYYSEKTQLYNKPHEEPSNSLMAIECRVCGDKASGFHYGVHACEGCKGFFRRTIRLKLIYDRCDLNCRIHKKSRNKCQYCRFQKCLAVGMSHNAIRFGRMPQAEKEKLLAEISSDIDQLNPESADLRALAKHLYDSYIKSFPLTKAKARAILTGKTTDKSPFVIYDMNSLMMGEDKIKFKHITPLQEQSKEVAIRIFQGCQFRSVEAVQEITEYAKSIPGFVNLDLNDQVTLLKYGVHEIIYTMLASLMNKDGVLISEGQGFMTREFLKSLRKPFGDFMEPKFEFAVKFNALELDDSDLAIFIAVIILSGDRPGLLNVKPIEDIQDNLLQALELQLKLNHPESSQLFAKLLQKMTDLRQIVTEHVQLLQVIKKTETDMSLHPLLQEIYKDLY
Peroxisome proliferator-activated receptor gamma/Nuclear receptor coactivator 2, sequence (Q15596 whole entry, further chain): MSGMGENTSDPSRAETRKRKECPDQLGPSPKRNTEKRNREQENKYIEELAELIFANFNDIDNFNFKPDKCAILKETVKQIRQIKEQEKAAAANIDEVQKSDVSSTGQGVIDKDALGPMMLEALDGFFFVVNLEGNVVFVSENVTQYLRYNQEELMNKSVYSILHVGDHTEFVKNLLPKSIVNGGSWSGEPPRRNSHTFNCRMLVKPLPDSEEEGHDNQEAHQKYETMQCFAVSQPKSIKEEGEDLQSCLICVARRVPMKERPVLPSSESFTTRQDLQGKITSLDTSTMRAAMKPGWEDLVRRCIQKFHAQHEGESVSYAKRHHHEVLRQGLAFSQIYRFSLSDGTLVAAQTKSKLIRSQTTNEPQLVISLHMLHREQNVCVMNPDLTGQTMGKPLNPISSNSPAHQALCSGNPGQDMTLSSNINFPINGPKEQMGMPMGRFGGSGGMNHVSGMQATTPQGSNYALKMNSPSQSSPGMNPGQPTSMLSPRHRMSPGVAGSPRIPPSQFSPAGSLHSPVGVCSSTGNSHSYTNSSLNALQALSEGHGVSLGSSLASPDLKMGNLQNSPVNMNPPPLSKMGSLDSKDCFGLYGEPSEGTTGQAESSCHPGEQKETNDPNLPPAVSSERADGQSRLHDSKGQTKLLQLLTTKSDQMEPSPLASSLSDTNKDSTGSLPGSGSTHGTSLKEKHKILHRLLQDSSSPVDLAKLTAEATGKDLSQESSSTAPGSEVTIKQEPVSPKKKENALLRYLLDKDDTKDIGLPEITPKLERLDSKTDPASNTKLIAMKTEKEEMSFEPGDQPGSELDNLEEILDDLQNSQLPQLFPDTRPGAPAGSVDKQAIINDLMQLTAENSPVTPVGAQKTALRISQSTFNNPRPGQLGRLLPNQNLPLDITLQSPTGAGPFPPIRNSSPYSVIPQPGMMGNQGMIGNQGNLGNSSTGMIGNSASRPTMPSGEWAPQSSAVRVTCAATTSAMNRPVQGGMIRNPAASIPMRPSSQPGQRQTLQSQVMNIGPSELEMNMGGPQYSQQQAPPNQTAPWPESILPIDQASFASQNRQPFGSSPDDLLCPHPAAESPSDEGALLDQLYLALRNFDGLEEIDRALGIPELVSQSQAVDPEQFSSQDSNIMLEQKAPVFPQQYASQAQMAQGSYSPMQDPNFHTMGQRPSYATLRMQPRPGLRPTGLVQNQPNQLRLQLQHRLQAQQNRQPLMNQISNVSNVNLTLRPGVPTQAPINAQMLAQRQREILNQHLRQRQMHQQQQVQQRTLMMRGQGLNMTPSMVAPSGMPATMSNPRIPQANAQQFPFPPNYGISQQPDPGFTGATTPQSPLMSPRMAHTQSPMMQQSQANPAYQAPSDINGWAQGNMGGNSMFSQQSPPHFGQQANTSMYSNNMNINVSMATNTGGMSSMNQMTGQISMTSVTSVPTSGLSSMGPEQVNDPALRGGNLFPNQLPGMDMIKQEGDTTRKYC
Peroxisome proliferator-activated receptor gamma/Nuclear receptor coactivator 3, sequence (P37231 whole entry): as the sequence (P37231 whole entry) above
Peroxisome proliferator-activated receptor gamma/Nuclear receptor coactivator 3, sequence (Q9Y6Q9 whole entry, further chain): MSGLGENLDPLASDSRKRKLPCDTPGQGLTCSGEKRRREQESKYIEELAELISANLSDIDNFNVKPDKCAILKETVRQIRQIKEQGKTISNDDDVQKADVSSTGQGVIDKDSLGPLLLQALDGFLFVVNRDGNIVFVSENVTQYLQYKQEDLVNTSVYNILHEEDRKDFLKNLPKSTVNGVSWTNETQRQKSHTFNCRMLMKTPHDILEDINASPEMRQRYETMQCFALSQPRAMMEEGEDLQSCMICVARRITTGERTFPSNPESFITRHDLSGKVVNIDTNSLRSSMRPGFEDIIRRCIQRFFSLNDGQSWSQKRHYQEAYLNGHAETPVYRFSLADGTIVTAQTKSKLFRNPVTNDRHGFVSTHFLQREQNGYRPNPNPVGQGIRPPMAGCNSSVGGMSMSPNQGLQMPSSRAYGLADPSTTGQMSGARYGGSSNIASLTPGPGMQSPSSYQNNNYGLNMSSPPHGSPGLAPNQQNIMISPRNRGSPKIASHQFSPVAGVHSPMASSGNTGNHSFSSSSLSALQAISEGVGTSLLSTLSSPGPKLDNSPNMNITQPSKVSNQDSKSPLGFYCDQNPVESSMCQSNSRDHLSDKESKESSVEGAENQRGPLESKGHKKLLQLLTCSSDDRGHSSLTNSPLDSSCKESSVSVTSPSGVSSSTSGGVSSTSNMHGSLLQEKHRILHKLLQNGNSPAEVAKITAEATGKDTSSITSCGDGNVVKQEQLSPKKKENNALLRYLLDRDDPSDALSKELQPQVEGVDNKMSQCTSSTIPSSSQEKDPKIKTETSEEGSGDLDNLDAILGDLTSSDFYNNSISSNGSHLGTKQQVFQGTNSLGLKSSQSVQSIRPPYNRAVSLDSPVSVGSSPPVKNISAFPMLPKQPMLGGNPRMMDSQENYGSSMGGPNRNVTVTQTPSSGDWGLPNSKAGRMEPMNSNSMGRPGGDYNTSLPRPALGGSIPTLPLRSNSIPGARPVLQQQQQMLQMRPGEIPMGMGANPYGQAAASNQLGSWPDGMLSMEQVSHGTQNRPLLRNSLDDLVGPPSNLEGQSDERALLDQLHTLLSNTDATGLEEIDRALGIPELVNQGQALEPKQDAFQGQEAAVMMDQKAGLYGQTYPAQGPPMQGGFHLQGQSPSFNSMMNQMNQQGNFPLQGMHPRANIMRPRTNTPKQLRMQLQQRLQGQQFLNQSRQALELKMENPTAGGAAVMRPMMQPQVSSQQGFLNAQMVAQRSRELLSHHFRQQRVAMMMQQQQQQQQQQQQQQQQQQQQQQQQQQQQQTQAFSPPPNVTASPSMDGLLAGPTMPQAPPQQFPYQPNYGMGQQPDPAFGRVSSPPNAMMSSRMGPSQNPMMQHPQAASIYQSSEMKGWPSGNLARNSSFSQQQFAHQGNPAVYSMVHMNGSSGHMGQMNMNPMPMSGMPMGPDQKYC
Glucose-6-phosphate 1-dehydrogenase, sequence (P11413 whole entry): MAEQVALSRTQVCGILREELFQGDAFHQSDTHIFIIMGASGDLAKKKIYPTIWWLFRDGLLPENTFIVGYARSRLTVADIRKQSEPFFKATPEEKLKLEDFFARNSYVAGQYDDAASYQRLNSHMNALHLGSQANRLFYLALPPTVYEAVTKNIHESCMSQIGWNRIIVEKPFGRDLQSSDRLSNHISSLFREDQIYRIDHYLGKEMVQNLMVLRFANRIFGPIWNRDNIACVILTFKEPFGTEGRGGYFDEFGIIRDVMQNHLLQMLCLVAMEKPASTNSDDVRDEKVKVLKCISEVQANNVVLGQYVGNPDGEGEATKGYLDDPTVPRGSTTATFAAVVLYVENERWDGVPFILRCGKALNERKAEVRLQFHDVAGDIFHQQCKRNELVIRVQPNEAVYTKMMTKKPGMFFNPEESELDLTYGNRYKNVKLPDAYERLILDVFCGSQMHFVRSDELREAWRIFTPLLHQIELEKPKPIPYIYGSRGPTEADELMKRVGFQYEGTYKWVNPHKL

## COCCNC(=O)c1ccc2c(c1)nc(C)n2-c1cccc(F)c1
[1]
  AC50: 98.8 µM (active)

## Cn1c(=O)cc(SCC(=O)N2CCN(C(=O)c3ccco3)CC2)c2ccccc21
[2]
  EC50: > 79.4 µM (inactive)
[3]
  EC50: > 79.4 µM (not active)
[4]
  EC50: > 195 µM (not active)
[5]
  EC50: > 79.4 µM (not active)

## COc1ccc(C(=O)CNc2ccccc2CO)cc1
Beta-galactosidase
  EC50: > 40 µM (inactive)
[6]
  IC50: 26.1 µM (not active)

## CC1=NOC(=O)/C1=C\c1ccc(-c2ccccc2Br)o1
[2]
  EC50: 9.24 µM (active)
[3]
  EC50: > 79.4 µM (not active)
Large T antigen
  IC50: 16.4 µM (active)
[5]
  EC50: 5.02 µM (active)
[7]
  IC50: > 80 µM (inactive)
[8]
  AC50: 6.48 µM (active)
[9]
  AC50: > 70 µM (inactive)
[10]
  AC50: > 20 µM (inactive)

## Cc1[nH][nH]c(=O)c1N=Nc1ccccc1Cl
[1]
  AC50: 28.9 µM (active)

## Cc1ccnc(Nc2nc(-c3ccc(O)c(O)c3)cs2)c1
[1]
  AC50: 10.1 µM (active)
[11]
  CC50: 69.5 µM (active)
[12]
  IC50: 41.3 µM (active)

## CCCCCCCCOC(=O)/C=C/c1c(C)nc(O)nc1O
[13]
  EC50: 1.76 µM (active)
Streptokinase A
  EC50: 2.38 µM (active)
Streptococcus
  EC50: > 150 µM (not active)
HEK293
  AC50: 2.59 µM (active)

## NC(Cc1ccc(O)cc1)C(=O)NN=Cc1ccc(N(CCCl)CCCl)cc1 (stereo unspecified)
HEK293
  AC50: 31.4 µM (active)
[14]
  IC50: > 47.1 µM (inactive)
[15]
  EC50: > 53 µM (inactive)
